In US12673933B2, “Aminopyrazine compounds as HPK1 inhibitor and the use thereof” (BEIGENE, LTD., priority 2019, dated 2026):

Target: T1, HPK1 kinase (aa1-346, Life Technologies) (Homo sapiens, UniProt Q92918)
T1 construct: HPK1 kinase (aa1-346, Life Technologies); purchased Life Technologies
T1 sequence (Q92918 1-346): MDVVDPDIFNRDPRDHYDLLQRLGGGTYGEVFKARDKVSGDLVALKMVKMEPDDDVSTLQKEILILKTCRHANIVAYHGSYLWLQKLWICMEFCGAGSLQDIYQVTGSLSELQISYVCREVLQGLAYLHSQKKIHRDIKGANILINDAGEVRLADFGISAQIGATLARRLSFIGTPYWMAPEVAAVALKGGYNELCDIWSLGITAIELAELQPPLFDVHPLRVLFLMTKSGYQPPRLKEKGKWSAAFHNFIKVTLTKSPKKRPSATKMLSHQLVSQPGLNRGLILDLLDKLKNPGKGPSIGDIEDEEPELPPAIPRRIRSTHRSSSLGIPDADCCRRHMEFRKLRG
Test: HPK Kinase Activity Assay at 1 mM ATP (TR-FRET)
Format: biochemical
Details: HPK1 kinase 40 nM, 0.5 μM STK1 substrate, read-out: Enzymatic activity IC50
Method in brief: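 HPK1 (aa1-346, 40 nM) was preincubated 60 min at room temperature with compound (0–10 μM) in pH 7.0 HEPES/MgCl2 buffer. Reaction ran 120 min at room temperature with 1 mM ATP and 0.5 μM STK1 substrate. Phosphorylation was read as the TR-FRET 665/620 nm ratio, with IC50 from a four-parameter logistic fit.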

Row | Structure (SMILES) | IC50 [nM]
1 | Cc1cc(-c2cnc(N)c(OCc3ccnc(N)c3C)n2)cc2c1CCN(C)C2 [Example 29, 3-((2-amino-3-methylpyridin-4-yl)methoxy)-5-(2,5-dimethyl-1,2,3,4-tetrahydroisoquinolin-7-yl)pyrazin-2-amine] | 16
2 | CNc1cc(-c2cnc(N)c(OCc3ccncc3OC)n2)cc2c1CCN(C)C2 [Example 205, 7-(5-amino-6-((3-methoxypyridin-4-yl)methoxy)pyrazin-2-yl)-N,2-dimethyl-1,2,3,4-tetrahydroisoquinolin-5-amine] | 12
3 | Cc1cc(-c2cnc(N)c(OCc3ccnc(C#Cc4cccnc4)c3)n2)cc2c1CCN(C)C2 [Example 19, 5-(2,5-dimethyl-1,2,3,4-tetrahydroisoquinolin-7-yl)-3-((2-(pyridin-3-ylethynyl)pyridin-4-yl)methoxy)pyrazin-2-amine] | 98
4 | Cc1cc(-c2cnc(N)c(Oc3cnn(C4CCN(C)CC4)c3)n2)cc2c1CCN(C)C2 [Example 307, 5-(2,5-dimethyl-1,2,3,4-tetrahydroisoquinolin-7-yl)-3-(1-(1-methylpiperidin-4-yl)-1H-pyrazol-4-yloxy)pyrazin-2-amine] | 5.9
5 | CCS(=O)(=O)N1CC(n2cc(Oc3nc(-c4cc(C)c5c(c4)CN(C)CC5)cnc3N)cn2)C1 [Example 295, 5-(2,5-dimethyl-1,2,3,4-tetrahydroisoquinolin-7-yl)-3-(1-(1-(ethylsulfonyl)azetidin-3-yl)-1H-pyrazol-4-yloxy)pyrazin-2-amine] | 36
6 | Cc1cc(-c2cnc(N)c(Oc3cnn([C@H]4C[C@H](C#N)C4)c3)n2)cc2c1CN(C)CC2 [Example 316, (1r,3r)-3-(4-((3-amino-6-(2,8-dimethyl-1,2,3,4-tetrahydroisoquinolin-6-yl)pyrazin-2-yl)oxy)-1H-pyrazol-1-yl)cyclobutane-1-carbonitrile] | 85
7 | Cc1cc(-c2cnc(N)c(OCc3cc[nH]n3)n2)cc2c1CCN(C)C2 [Example 43, 3-((1H-pyrazol-3-yl)methoxy)-5-(2,5-dimethyl-1,2,3,4-tetrahydroisoquinolin-7-yl)pyrazin-2-amine] | 56
8 | CCn1cc(Oc2nc(-c3cc4c(c(NC)c3)CCN(C)C4)cnc2N)cn1 [Example 275, 7-(5-amino-6-(1-ethyl-1H-pyrazol-4-yloxy)pyrazin-2-yl)-N,2-dimethyl-1,2,3,4-tetrahydroisoquinolin-5-amine] | 14
9 | Cc1cc(-c2cnc(N)c(-n3cc(C(=O)N(C)C)cn3)n2)cc2c1CCN(C)C2 [Example 46, 1-(3-amino-6-(2,5-dimethyl-1,2,3,4-tetrahydroisoquinolin-7-yl)pyrazin-2-yl)-N,N-dimethyl-1H-pyrazole-4-carboxamide] | 21
10 | COc1cnc2[nH]ccc2c1COc1nc(-c2cc(C)c3c(c2)CN(C)CC3)cnc1N [Example 188, 5-(2,5-dimethyl-1,2,3,4-tetrahydroisoquinolin-7-yl)-3-((5-methoxy-1H-pyrrolo[2,3-b]pyridin-4-yl)methoxy)pyrazin-2-amine] | 8.1

Further lines, results first:

Row | IC50 [nM] | Structure (SMILES)
11 | 47 | Cc1cc(-c2cnc(N)c(O[C@H](C)c3c(Cl)ccc(C(=O)NC4CC4)c3Cl)n2)cc2c1CCN(C)C2 [Example 47A, (R)-3-(1-(3-amino-6-(2,5-dimethyl-1,2,3,4-tetrahydroisoquinolin-7-yl)pyrazin-2-yloxy)ethyl)-2,4-dichloro-N-cyclopropylbenzamide]
12 | 22 | Cc1cc(-c2cnc(N)c(Oc3cnn(C4CCOCC4)c3)n2)cc2c1CCN(C)C2 [Example 309, 5-(2,5-dimethyl-1,2,3,4-tetrahydroisoquinolin-7-yl)-3-(1-(tetrahydro-2H-pyran-4-yl)-1H-pyrazol-4-yloxy)pyrazin-2-amine]
13 | 17 | Cc1cnccc1COc1nc(-c2cc(C)c3c(c2)CN(C)CC3)cnc1N [Example 9, 5-(2,5-dimethyl-1,2,3,4-tetrahydroisoquinolin-7-yl)-3-((3-methylpyridin-4-yl)methoxy)pyrazin-2-amine]
14 | 4.5 | Cc1cc(-c2cnc(N)c(Oc3cnn(CC4(F)CCOCC4)c3)n2)cc2c1CCN(C)C2 [Example 314, 5-(2,5-dimethyl-1,2,3,4-tetrahydroisoquinolin-7-yl)-3-(1-((4-fluoro-tetrahydro-2H-pyran-4-yl)methyl)-1H-pyrazol-4-yloxy)pyrazin-2-amine]
15 | 38 | Cc1cc(-c2cnc(N)c(-n3cc(C(=O)N4CCN(C)CC4)cn3)n2)cc2c1CCN(C)C2 [Example 284, (1-(3-amino-6-(2,5-dimethyl-1,2,3,4-tetrahydroisoquinolin-7-yl)pyrazin-2-yl)-1H-pyrazol-4-yl)(4-methylpiperazin-1-yl)methanone]
16 | 29 | CCNc1cc(COc2nc(-c3cc(C)c4c(c3)CN(C)CC4)cnc2N)ccn1 [Example 40, 5-(2,5-dimethyl-1,2,3,4-tetrahydroisoquinolin-7-yl)-3-((2-(ethylamino)pyridin-4-yl)methoxy)pyrazin-2-amine]
17 | 63 | Cc1cc(-c2cnc(N)c(Oc3cnn([C@H]4CC[C@@](C)(O)CC4)c3)n2)cc2c1CN(C)CC2 [Example 312, (1s,4s)-4-(4-(3-amino-6-(2,8-dimethyl-1,2,3,4-tetrahydroisoquinolin-6-yl)pyrazin-2-yloxy)-1H-pyrazol-1-yl)-1-methylcyclohexanol]
18 | 157 | Cc1cc(-c2cnc(N)c(OCc3cccnc3)n2)cc2c1CCN(C)C2 [Example 15, 5-(2,5-dimethyl-1,2,3,4-tetrahydroisoquinolin-7-yl)-3-(pyridin-3-ylmethoxy)pyrazin-2-amine]
19 | 20 | Cc1cc(-c2cnc(N)c(Oc3cnn(C(C)(C)C#N)c3)n2)cc2c1CCN(C)C2 [Example 317, 2-(4-(3-amino-6-(2,5-dimethyl-1,2,3,4-tetrahydroisoquinolin-7-yl)pyrazin-2-yloxy)-1H-pyrazol-1-yl)-2-methylpropanenitrile]
20 | 29 | Cc1cc(-c2cnc(N)c(OCc3ccncc3)n2)cc2c1CCN(C)C2 [Example 1, 5-(2,5-dimethyl-1,2,3,4-tetrahydroisoquinolin-7-yl)-3-(pyridin-4-ylmethoxy)pyrazin-2-amine]
21 | 19 | CNCCN(C)C(=O)c1cnn(-c2nc(-c3cc(C)c4c(c3)CN(C)CC4)cnc2N)c1 [Example 279, 1-(3-amino-6-(2,5-dimethyl-1,2,3,4-tetrahydroisoquinolin-7-yl)pyrazin-2-yl)-N-methyl-N-(2-(methylamino)ethyl)-1H-pyrazole-4-carboxamide]
